Assay results: US12629375B2, “Compounds with anti-tumor activity against cancer cells bearing HER2 exon 21 insertions” (Board of Regents, The University of Texas System, priority 2019, dated 2026)
Like-named read-outs stand apart in the source and are kept apart here.

Legend:
[1] = system: patients with HER2 mutant NSCLC; details: cited from earlier work
[2] = system: Ba/F3 cells stably expressing HER2 mutations (exons 19, 20, 21); experiment: Ba/F3 HER2 mutant cell viability (Cell Titer Glo) TKI screen; format: cell-based; details: for inhibitory activity for HER2 mutants across all three exons: exons 19, 20, 21; for inhibitory activity for HER2 mutants across all three exons / activity against cells expressing D769 variants / inhibiting cell viability in cells expressing exon 20 mutations: 72 hours; for sensitivity of HER2 mutants to inhibitor: all HER2 mutants, 72 hours drug treatment; for activity against cells expressing D769 variants: HER2 D769 variants; for inhibiting cell viability in cells expressing exon 20 mutations: HER2 exon 20 mutations
Experimental: Briefly, stable Ba/F3 cell lines were generated by retroviral transduction of Ba/F3 cell line for 12 hours. […] Three days after transduction, 2 μg/ml puromycin (Invitrogen) was added to the RPMI media. After 5 days of selection, cells were stained with FITC-HER2 (Biolegend) sorted by FACS. Cell lines were then grown in the absence of IL-3 for two weeks and cell viability was assessed every three days using the Cell Titer Glo assay (Progema).
(§1) Briefly, 2000-3000 cells per well were plated in 384-well plates (Greiner Bio-One) in technical triplicate. Cells were treated with seven different concentrations of tyrosine kinase inhibitors or vehicle alone at a final volume of 40 μL per well. After 3 days, 11μL of Cell Titer Glo was added to each well. Plates were shaken for 15 minutes, and bioluminescence was determined using a FLUOstar OPTIMA multi-mode micro-plate reader (BMG LABTECH). Bioluminescence values were normalized to DMSO treated cells, and normalized values were plotted in GraphPad Prism using non-linear regression fit to normalized data with a variable slope.

[3] = system: CW-2 colorectal cell xenograft (HER2 L755S); experiment: CW-2 xenograft mouse model; format: in vivo, nu/nu nude mice; details: day 21, 30 mg/kg, 5 days/week
Experimental: In vivo xenograft studies: CW-2 cell line xenografts were created by injecting 1×10^6 cells in 50% matrigel into 6 week old female nu/nu nude mice. When tumors reached 350 mm^3 mice were randomized into 4 groups: 20 mg/kg afatinib, 5 mg/kg poziotinib, 30 mg/kg neratinib, or vehicle control (0.5% Methylcellulose, 2% Tween-80 in dH2O). Tumor volumes were measured three times per week. Mice received drug Monday-Friday (5 days per week), but began dosing on Wednesday allowing for a 2 day holiday after the first 3 days of dosing.

[4] = system: CW-2 large intestine cells harboring HER2 exon 19 mutation L755S; experiment: CW-2 cell viability; format: cell-based; details: Homo sapiens, CW-2, 72 h, read-out: average IC50
Experimental: as §1, with “Cell Viability Assay and IC50 Estimation: Cell viability was determined using the Cell Titer Glo assay (Promega) as previously described (Robichaux et al., 2018). Briefly,” for “Briefly,”, “slope. IC50 values were calculated by GraphPad Prism at 50% inhibition.” for “slope.”
Human Cell lines: MCF10A cells were purchased from ATCC and were cultured in DMEM/F12 media supplemented with 1% penicillin/streptomycin, 5% horse serum (sigma), 20 ng/ml EGF, […] hydrocortisone, and 10 μg/ml insulin. Stable cell lines were created by retroviral transduction, and retroviruses were generated by transfecting pBabe-Puro based vectors summarized in Table 1 (Addgene and Bioinnovatise) into Phoenix 293T-ampho cells (Orbigen) using Lipofectamine 2000 (Invitrogen). […]

[5] = system: MCF10A HER2 mutant cell lines; experiment: MCF10A cell viability, HER2 exon 20 mutant cell lines together (average, selectivity vs HER2 WT, T-DM1 combination); format: cell-based, human
Experimental: as §1
Human Cell lines: MCF10A cells were purchased from ATCC and were cultured in DMEM/F12 media supplemented with 1% penicillin/streptomycin, 5% horse serum (sigma), 20 ng/ml EGF, […] hydrocortisone, and 10 μg/ml insulin. […] Two days after transduction, 0.5 μg/ml puromycin (Invitrogen) was added to the RPMI media. […] CW-2 cells were provided by the Riken cell line database under MTA, and were maintained in RPMI containing 10% FBS and 1% penicillin/streptomycin.

[6] = system: patients with HER2 mutant cancers; details: cited from earlier work
[7] = system: p-HER2; experiment: Western blot of p-HER2 in MCF10A HER2 G776delinsVC cells; format: cell-based, human; details: 10 nM, 2 hours treatment
Experimental: Western Blotting: For Western blotting, cells were washed in PBS and lysed in RIPPA lysis buffer (ThermoFisher) and protease inhibitor cocktail tablets (Roche). Protein (30-40 μg) was loaded into gels purchased from BioRad. BioRad semi-dry transfer was used and then probed with antibodies against, pHER2, HER2, pPI3K, PI3K, p-AKT, AKT, p-ERK1/2, and ERK1/2 (1:1000; Cell Signaling). Blots were probed with antibodies against vinculin or β-actin (Sigma-Aldrich) as a loading control, and exposed using ECL Western Blotting substrate (Promega).

[8] = system: patients with HER2 mutant NSCLC; details: cited from earlier work; remark: listed apart in the source
[9] = system: HER2 Y772dupYVMA NSCLC PDX; experiment: HER2 Y772dupYVMA NSCLC PDX model; format: in vivo, NSG mice
Experimental: Y772dupYVMA PDX mice were purchased from Jax Labs (Model #TM01446). Fragments from tumors expressing HER2 Y772dupYVMA were inoculated into 5- to 6-week old female NSG mice (Jax Labs #005557). Mice were measured three times per week, and when tumors reached a volume of 200-300 mm^3 mice were randomized into four treatment groups: vehicle control (0.5% Methylcellulose, 0.05% Tween-80 in dH2O), 2.5 mg/kg poziotinib, 10 mg/kg T-DM1, or combination of 2.5 mg/kg poziotinib and 10 mg/kg T-DM1. Tumor volumes and body weight were measured three times per week. Mice treated with 2.5 mg/kg poziotinib received drug orally Monday-Friday (5 days per week). Mice treated with 10 mg/kg T-DM1 received one intravenous (IV) dose of T-DM1 on the day of randomization. Mice treated with combination poziotinib and T-DM1 received one IV dose of T-DM1 and began 2.5 mg/kg poziotinib five days per week, 3 days after the dose of T-DM1. Mice received a holiday from dosing if the mouse dropped in body weight by greater than 10% or if body weight dropped below 20 grams. Progression free survival was defined as tumor doubling from best response for two consecutive measurements. Complete regression was defined as greater than 95% reduction in tumor burden, and for mice with complete regression, tumor doubling was defined greater than 75 mm^3 for more than two consecutive measurements. Experiments were completed in agreement with Good Animal Practices and with approval from MD Anderson Cancer Center Institutional Animal Care and Use Committee (Houston, TX).

[10] = lung cancer patients harboring HER2 exon 20 insertion mutations

Molecule: COc1cc2ncnc(Nc3ccc(F)c(Cl)c3)c2cc1NC(=O)/C=C/CN1CCCCC1 [dacomitinib]
- ORR ([1]; HER2 mutant NSCLC): 11.5%
- response rate [1, 10]: 11.5%
- responses ([1]; patients bearing HER2 exon 20 insertion p.Y772dupYVMA): no responses
- inhibitory activity for HER2 mutants across all three exons [2]: had inhibitory activity

Molecule: CS(=O)(=O)CCNCc1ccc(-c2ccc3ncnc(Nc4ccc(OCc5cccc(F)c5)c(Cl)c4)c3c2)o1 [lapatinib]
- sensitivity of HER2 mutants to inhibitor [2]: robust resistance

Molecule: Cc1cc(C(=O)Nc2nc3cccc(Cl)c3n2[C@@H]2CCCCN(C(=O)/C=C/CN(C)C)C2)ccn1 [nazartinib]
- activity against cells expressing D769 variants [2]: did demonstrate activity
- inhibiting cell viability in cells expressing exon 20 mutations [2]: not effective

Molecule: CCOc1cc2ncc(C#N)c(Nc3ccc(OCc4ccccn4)c(Cl)c3)c2cc1NC(=O)/C=C/CN(C)C [neratinib]
- increased tumor volume compared to vehicle control [3]: 28%
- IC50 [4]: 68.8 nM
- IC50 ([5]; Homo sapiens, MCF-10A, average over MCF10A G776del insVC, Y772dupYVMA, G778dupGSP cells, 72 hours): 150 nM
- objective response rate (ORR) ([6]; SUMMIT pan-cancer study, all HER2 mutations): less than 15%
- ORR ([6]; SUMMIT, HER2 kinase domain point mutations): 21.4%
- ORR ([6]; SUMMIT, exon 20 insertions): 7.1%
- response ([6]; SUMMIT, patients with colorectal cancer): did not respond
- response rate [6, 10]: 0%
- ORR ([6]; patients with breast cancer, single agent, multiple studies): 12.5%-32%
- response rate ([6]; patients with lung cancer, single agent): 0%-4%
- inhibition of p-HER2 [7]: not
- IC50 values in Ba/F3 drug screening ([2]; HER2 L755S, V777L, or L869R mutations): low IC50 values
- sensitivity of V842I mutation in the drug screen assays ([2]; HER2 V842I (exon 21)): not sensitive
- inhibitory activity for HER2 mutants across all three exons [2]: had inhibitory activity

Molecule: C=CC(=O)Nc1cc(Nc2nccc(-c3cn(C)c4ccccc34)n2)c(OC)cc1N(C)CCN(C)C [osimertinib]
- activity against cells expressing D769 variants [2]: did demonstrate activity
- inhibiting cell viability in cells expressing exon 20 mutations [2]: not effective

Molecule: CCOc1cc2ncc(C#N)c(Nc3ccc(OCc4ccccn4)c(Cl)c3)c2cc1NC(=O)/C=C/[C@H]1CCCN1C [pyrotinib]
- selectivity index (SI, IC50 value mutant/IC50 value WT) ([5]; MCF10A HER2 mutant vs HER2 WT cell lines): 0.063

Molecule: CNC(=O)CN1CCC(Oc2cc3c(Nc4cccc(Cl)c4F)ncnc3cc2OC)CC1 [sapatinib]
- sensitivity of HER2 mutants to inhibitor [2]: robust resistance

Molecule: T-DM1
- inhibition of cell viability of MCF10A HER2 mutant cell lines ([5]; agent alone): did not inhibit cell viability
- ORR ([8]; patients harboring exon 20 insertion mutations): 54.5%
- partial responses ([8]; patients with exon 19 mutations): did not have partial responses
- tumor growth after best response ([9]; by day 30): tumor growth resumed in all mice
- mice with complete tumor regression ([9]; day 15 (best response), poziotinib 2.5 mg/kg, T-DM1 10 mg/kg single dose): 2/9
- median PFS (mPFS), time to tumor doubling from best response ([9]; poziotinib 2.5 mg/kg 5 days per week, T-DM1 10 mg/kg single IV dose): 27 days
